Tested on: R223X stop codon in the mutated luciferase gene, ADXC8 luciferase reporter cell line
Assay: cells
Format: cell-based
Conditions: 24 h, ADXC8 cells, 24 hours; for Emax: read-out: Fold Over Control, maximum fold response relative to 200 μM G418; for EC (100% of 200 uM G418 response): read-out: pC100%, negative logarithm of the concentration giving the same response as 200 μM G418
Description: The read-through activity of compounds was assessed using the ADXC8 luciferase reporter cell line (generated as described in McElroy et al. PLoS Biology (2013), 11, e1001593). […] The amount of luciferase is measured by adding a lysis buffer containing luciferin substrate and detecting luminescence using the following protocol:
ADXC8 cells in assay media (DMEM+10% FBS) were seeded into 96-well tissue culture treated white plates (Greiner) to a density of 13,000 cells per well and incubated for 24 hours at 37° C. in an atmosphere of 5% CO2. […] Plates were incubated for a further 24 hours at 37° C. in an atmosphere of 5% CO2. Cells treated with 200 μM G418 (with 1% DMSO) were used as a positive control.
Cell viability and firefly luciferase activity were measured in the same assay wells. CellTiter-Fluor™ reagent was prepared as per manufacturer's instructions (Promega E7120) and 20 μl of 5× CellTiter-Fluor™ reagent was added to all wells, briefly mixed by orbital shaking (300-500 rpm for −30 seconds) and the plates incubated for 30-45 minutes at 37° C. in an atmosphere of 5% C02. Cell viability was measured by monitoring fluorescence on a CLARIOstar® plate reader (BMG Labtech). Cells containing 1% DMSO were used as a positive control and cells with 400 μM Doxorubicin were used as negative control to define 100 and 0% respectively. ONE-Glo™ luciferase assay buffer (Promega E7120) was prepared according to manufacturer's instructions and 100 μl of luciferase reagent was added to each well and the plate incubated at RT for 3 mins before measuring the luminescence on the CLARIOstar® plate reader (BMG Labtech). Cells treated with 200 μM G418 (with 1% DMSO) were used as a positive control and arbitrarily assigned a value of 100%. Cells treated with 1% DMSO were used as the negative control to define 0% response.
Concentration effect curves were analysed using non-linear regression using the CDD Vault from Collaborative Drug Discovery (Burlingame, CA). […] The bottom and top of the curves were constrained to 0 and the maximum measured response respectively. From the fitted curves, the software derived C100% values (the concentration giving the same response as 200 μM G418) for each compound. The negative logarithm of C100% is reported as pC100% (Table 1). In addition to pC100% values, the maximum fold response relative to 200 μM G418 (Fold over Control) was also captured (Table 1). A pC100% categorisation of ‘-’ in Table 1 represents examples in which a pC100% response was not reached when assayed at a concentration of 100 μM. A pC100% categorisation of ‘*’ in Table 1 represents examples in which a pC100% response was not reached when assayed at a concentration of 30 μM.

| Structure (SMILES) | Emax [%] | EC (100% of 200 uM G418 response) [µM] |
| --- | --- | --- |
| Cc1cc(C)c2c(N)nc(N[C@H]3CCN(C)C3)nc2n1 [Example 15, (S)-5,7-dimethyl-N^2-(1-methylpyrrolidin-3-yl)pyrido[2,3-d]pyrimidine-2,4-diamine] | 100 to 3000 | 1 to 10 |
| Cc1cc(-c2ccccc2)nc2nc(NC3CCN(C)CC3)nc(N)c12 [Example 16, 5-methyl-N^2-(1-methylpiperidin-4-yl)-7-phenylpyrido[2,3-d]pyrimidine-2,4-diamine] |  | 0.1 to 1 |
| COc1ccc2c(N)nc(NC3CCN(C)CC3)nc2n1 [Example 17, 7-methoxy-N^2-(1-methylpiperidin-4-yl)pyrido[2,3-d]pyrimidine-2,4-diamine] | 100 to 3000 | 10 to 100 |
| CN1CCC(Nc2nc(N)c3ccc(C(F)(F)F)nc3n2)CC1 [Example 18, N^2-(1-methylpiperidin-4-yl)-7-(trifluoromethyl)pyrido[2,3-d]pyrimidine-2,4-diamine] | 100 to 3000 | 10 to 100 |
| CN1CCC(Nc2nc(N)c3cc(C(F)(F)F)cnc3n2)CC1 [Example 19, N^2-(1-methylpiperidin-4-yl)-6-(trifluoromethyl)pyrido[2,3-d]pyrimidine-2,4-diamine] | 0 to 100 | > 100 |
| CN1CCC(Nc2nc(N)c3cc(Br)cnc3n2)CC1 [Example 20, 6-bromo-N^2-(1-methylpiperidin-4-yl)pyrido[2,3-d]pyrimidine-2,4-diamine] | 100 to 3000 | 10 to 100 |
| Cc1nc2nc(NC3CCN(C)CC3)nc(N)c2cc1Br [Example 21, 6-bromo-7-methyl-N-(1-methylpiperidin-4-yl)pyrido[2,3-d]pyrimidine-2,4-diamine] | 100 to 3000 | 1 to 10 |
| Cc1nc2nc(NC3CCN(C)CC3)nc(N)c2c(C)c1Br [Example 22, 6-bromo-5,7-dimethyl-N^2-(1-methylpiperidin-4-yl)pyrido[2,3-d]pyrimidine-2,4-diamine] | 100 to 3000 | 1 to 10 |
| CN1CCC(Nc2nc(N)c3ccc(Cl)nc3n2)CC1 [Example 23, 7-chloro-N^2-(1-methylpiperidin-4-yl)pyrido[2,3-d]pyrimidine-2,4-diamine] | 100 to 3000 | 10 to 100 |
| COc1ccc(-c2ccc3c(N)nc(NC4CCN(C)CC4)nc3n2)cc1 [Example 24, 7-(4-methoxyphenyl)-N^2-(1-methylpiperidin-4-yl)pyrido[2,3-d]pyrimidine-2,4-diamine] |  | 1 to 10 |
| CN1CCC(Nc2nc(N)c3ccc(-c4cccnc4)nc3n2)CC1 [Example 25, N^2-(1-methylpiperidin-4-yl)-7-(pyridin-3-yl)pyrido[2,3-d]pyrimidine-2,4-diamine] | 100 to 3000 | 10 to 100 |
| CN1CCC(Nc2nc(N)c3ccc(-c4cnn(C)c4)nc3n2)CC1 [Example 26, 7-(1-methyl-1H-pyrazol-4-yl)-N^2-(1-methylpiperidin-4-yl)pyrido[2,3-d]pyrimidine-2,4-diamine] | 0 to 100 | > 100 |
| CN1CCC(Nc2nc(N)c3ccc(-c4ccccc4)nc3n2)CC1 [Example 27, N^2-(1-methylpiperidin-4-yl)-7-phenylpyrido[2,3-d]pyrimidine-2,4-diamine] | 100 to 3000 | 1 to 10 |
| CN1CCC(Nc2nc(N)c3cc(OC4COC4)cnc3n2)CC1 [Example 28, N^2-(1-methylpiperidin-4-yl)-6-(oxetan-3-yloxy)pyrido[2,3-d]pyrimidine-2,4-diamine] | 0 to 100 | > 100 |
| Cc1cc(C)c2c(N)nc(NCCCN3CC4(COC4)C3)nc2n1 [Example 29, N^2-(3-(2-oxa-6-azaspiro[3.3]heptan-6-yl)propyl)-5,7-dimethylpyrido[2,3-d]pyrimidine-2,4-diamine] | 100 to 3000 | 10 to 100 |
| Cc1cc(C)c2c(N)nc(NCCN3CC4(COC4)C3)nc2n1 [Example 30, N^2-(2-(2-oxa-6-azaspiro[3.3]heptan-6-yl)ethyl)-5,7-dimethylpyrido[2,3-d]pyrimidine-2,4-diamine] | 100 to 3000 | 10 to 100 |
| CN1CCC(Nc2nc(N)c3c(n2)nc(-c2ccccc2)c2ccccc23)CC1 [Example 31, N^3-(1-methylpiperidin-4-yl)-6-phenylpyrimido[4,5-c]isoquinoline-1,3-diamine] | 100 to 3000 | 1 to 10 |
| CN1CCC(Nc2nc(N)c3ccc(Oc4ccccc4)nc3n2)CC1 [Example 32, N^2-(1-methylpiperidin-4-yl)-7-phenoxypyrido[2,3-d]pyrimidine-2,4-diamine] | 100 to 3000 | 10 to 100 |
| CN1CCC(Nc2nc(N)c3ccc(OC4CCC4)nc3n2)CC1 [Example 33, 7-cyclobutoxy-N^2-(1-methylpiperidin-4-yl)pyrido[2,3-d]pyrimidine-2,4-diamine] | 100 to 3000 | 10 to 100 |
| CNc1ccc2c(N)nc(NC3CCN(C)CC3)nc2n1 [Example 34, N^7-methyl-N2-(1-methylpiperidin-4-yl)pyrido[2,3-d]pyrimidine-2,4,7-triamine] | 100 to 3000 | 10 to 100 |
| CN1CCC(Nc2nc(N)c3ccc(Nc4ccccc4)nc3n2)CC1 [Example 35, N^2-(1-methylpiperidin-4-yl)-N^7-phenylpyrido[2,3-d]pyrimidine-2,4,7-triamine] | 0 to 100 | > 100 |
| CN1CCC(Nc2nc(N)c3ccc(N(C)C)nc3n2)CC1 [Example 36, N^7,N^7-dimethyl-N^2-(1-methylpiperidin-4-yl)pyrido[2,3-d]pyrimidine-2,4,7-triamine] | 100 to 3000 | 10 to 100 |
| Cc1cc(C)c2c(N)nc(NCCN3Cc4ccccc4C3)nc2n1 [Example 37, N^2-(2-(isoindolin-2-yl)ethyl)-5,7-dimethylpyrido[2,3-d]pyrimidine-2,4-diamine] |  | 10 to 100 |
| CC(C)Oc1ccc2c(N)nc(NC3CCN(C)CC3)nc2n1 [Example 38, 7-isopropoxy-N^2-(1-methylpiperidin-4-yl)pyrido[2,3-d]pyrimidine-2,4-diamine] | 0 to 100 | > 100 |
| CNc1nc(NC2CCN(C)CC2)nc2ncccc12 [Example 39, N^4-methyl-N^2-(1-methylpiperidin-4-yl)pyrido[2,3-d]pyrimidine-2,4-diamine] | 100 to 3000 | 10 to 100 |
| CN1CCC(Nc2nc(N(C)C)c3cccnc3n2)CC1 [Example 40, N^4,N^4-dimethyl-N^2-(1-methylpiperidin-4-yl)pyrido[2,3-d]pyrimidine-2,4-diamine] | 100 to 3000 | 10 to 100 |
| COc1ccc(CNc2ccc3c(N)nc(NC4CCN(C)CC4)nc3n2)c(OC)c1 [Example 41, N^7-(2,4-dimethoxybenzyl)-N2-(1-methylpiperidin-4-yl)pyrido[2,3-d]pyrimidine-2,4,7-triamine] | 0 to 100 | > 100 |
| CC#Cc1cnc2nc(NC3CCN(C)CC3)nc(N)c2c1 [Example 42, N^2-(1-methylpiperidin-4-yl)-6-(prop-1-yn-1-yl)pyrido[2,3-d]pyrimidine-2,4-diamine] | 0 to 100 | > 100 |
